In patent publication US20230026577A1, “Ophthalmic Pharmaceutical Compositions” (Vanda Pharmaceuticals Inc., priority 2019, published 2023):

How the values were obtained:
[1] = Solubility of the compound of Formula I in various materials (HPLC with UV detector); format: physicochemical
Protocol: The solubility of the compound of Formula I in various materials is determined.

[2] = Forced degradation studies of the compound of Formula I; format: physicochemical
Text: The formation of the compound of Formula II is slowed and/or eliminated by inclusion of an "antioxidant system," as described herein, in the novel ophthalmic solution compositions described herein.

SMILES: CNc1nc(Nc2ccccc2)nc(OCC(F)(F)C(F)F)n1 [Formula I, N^2-methyl-N^4-phenyl-6-(2,2,3,3-tetrafluoropropoxy)-1,3,5-triazine-2,4-diamine]
- solubility ([1]; 0.2% poloxamer in water, aqueous with cosolvent or surfactant or cyclodextrin): 10 µg/mL
- solubility ([1]; 0.5% polyoxyl 40 hydrogenated castor oil in water, aqueous with cosolvent or surfactant or cyclodextrin): 70 µg/mL
- solubility ([1]; 1% polysorbate-80 in water, aqueous with cosolvent or surfactant or cyclodextrin): 100 µg/mL
- solubility ([1]; 1.4% polyvinyl alcohol in water, aqueous with cosolvent or surfactant or cyclodextrin, 1.4% Poly Vinyl Alcohol in water): 10 µg/mL
- solubility ([1]; 5% polyoxyl 35 castor oil in water, aqueous with cosolvent or surfactant or cyclodextrin): 480 µg/mL
- solubility ([1]; 7% polyoxyl 40 stearate in water, aqueous with cosolvent or surfactant or cyclodextrin): 620 µg/mL
- solubility ([1]; castor oil, oil or lipid): 1090 µg/mL
- solubility ([1]; glycerine, organic solvent or mixture): 100 µg/mL
- solubility ([1]; mineral oil, oil or lipid): 40 µg/mL
- solubility ([1]; polyethylene glycol 400 (PEG-400), organic solvent or mixture): 14500 µg/mL
- solubility ([1]; propylene glycol (PG), organic solvent or mixture): 4960 µg/mL
- solubility ([1]; purified water, water): < 10 µg/mL
- Formation of the compound of Formula II [2]: not formed
